Results: US11731934B2, “HDAC inhibitor compounds and methods of treatment” (University of Florida Research Foundation, Inc., priority 2014, dated 2023)

Experiments:
[1] = 50 mg/kg dosed orally, ref (4); cited from earlier work
HCT116 cells [2] = assay: Western blotting of acetylated histones; assay type: cell-based; conditions: for Accumulation of acetylated histones: HCT116, 1 h, TSA 0.2 μM, others 2 μM (FIG. 1A); for Inhibition of cellular HDACs (H4K5ac, H3K18ac): HCT116, 0.5 μM, 24 h (FIG. 1B)
HCT116 cells [3] = assay: H3K18ac after 6 h pulse treatment and drug washout; assay type: cell-based; conditions: 6 h exposure then washout
HepG2 cells = assay: Viability assay, with or without HDAC shRNA; assay type: cell-based; conditions: HepG2, 96 h (FIG. 4A)
[4] = test system: Ad-MLP-Luc reporter in HCT116 cell line; assay: Ad-MLP-Luc luciferase reporter activation assay; assay type: cell-based; conditions: HCT116, compared to Ad-E2-Luc reporter
HDAC1 = HDAC1 (Homo sapiens (Human), UniProt Q13547); assay: In vitro HDAC1 inhibition assay of HTS hits (HDAC/II-Glo reagents); assay type: biochemical
Chain of HDAC1 (Q13547 whole entry): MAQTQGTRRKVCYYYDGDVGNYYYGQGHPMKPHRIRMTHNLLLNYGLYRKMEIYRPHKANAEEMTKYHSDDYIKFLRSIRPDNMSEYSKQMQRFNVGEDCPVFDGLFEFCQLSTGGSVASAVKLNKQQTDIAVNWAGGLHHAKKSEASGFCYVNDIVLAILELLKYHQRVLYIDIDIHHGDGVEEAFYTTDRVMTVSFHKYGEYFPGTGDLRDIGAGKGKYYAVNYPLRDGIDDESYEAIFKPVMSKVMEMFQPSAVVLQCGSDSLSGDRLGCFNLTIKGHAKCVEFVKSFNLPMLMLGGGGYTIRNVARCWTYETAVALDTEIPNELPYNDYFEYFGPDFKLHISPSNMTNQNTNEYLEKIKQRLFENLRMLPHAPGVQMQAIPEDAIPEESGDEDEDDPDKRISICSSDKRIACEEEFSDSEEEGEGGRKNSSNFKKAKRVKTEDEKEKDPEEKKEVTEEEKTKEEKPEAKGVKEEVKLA

HCT116 and A549 cells = assay: Western blotting of acetylated non-histone proteins; assay type: cell-based; conditions: for α-tubulin acetylation: 1 h, TSA 0.2 μM, UF010 2 μM
MDA-MB-231 cells [5] = conditions: UF010 at 1 μM
[6] = test system: NCI-60 panel of cancer cell lines; assay: NCI-60 panel screen; assay type: cell-based
[7] = Cell-based assays, comparison with entinostat
From the text: Chem Biol. 2015: in press.].

MDA-MB-231 cells [8] = assay: Cell cycle analysis by FACS; assay type: cell-based; conditions: 24 h, dose-dependent
MDA-MB-231 cells [9] = assay: Quantitative real-time PCR of CDKN1A (p21); assay type: cell-based
MDA-MB-231 cells [10] = assay: Microarray gene expression profiling with Ingenuity Pathway Analysis; assay type: cell-based; conditions: 1 μM, 24 h

In the case of `Nc1ccccc1NC(=O)CCCCCC(=O)Nc1ccccc1` [Compound 4b], the Tmax [1] is listed as 15 min.
For `Nc1ccccc1NC(=O)c1ccc(CNC(=O)OCc2cccnc2)cc1` [MS-275, entinostat], the “Accumulation of acetylated histones” value (HCT116 cells [2]) was “only slightly induced acetylation at several sites but failed to induce acetylation at most sites”, the “Persistence of induced histone acetylation (H3K18ac) after drug addition” value (from here on “Persistence”) (HCT116 cells [3]) was “at least 48 h” and the “Time to induction of histone acetylation (H3K18ac)” value (from here on “Time to induction”) (HCT116 cells [3]) was 18 h.
For `CCCCNNC(=O)c1ccccc1` [RLS2-125, N′-butylbenzohydrazide], the “Growth inhibition for HepG2” value (HepG2 cells) was “little to no growth inhibition”.
With `CCCCNNC(=O)c1ccc(N(C)C)cc1` [RLS2-131, N′-butyl-4-(dimethylamino)benzohydrazide] the “Inhibition of cellular HDACs (H4K5ac, H3K18ac)” value (HCT116 cells [2]) was “consistently displayed potent inhibition of cellular HDACs”.
With `C/C=C1\NC(=O)[C@H]2CSSCC/C=C/[C@H](CC(=O)N[C@H](C(C)C)C(=O)N2)OC(=O)[C@H](C(C)C)NC1=O` [Romidepsin, romidepsin] the Ad-MLP-Luc reporter activity [4] was “dramatically increased in a dose-dependent manner”, the “Persistence” value (HCT116 cells [3]) was “up to 24 h” and the “Time to induction” value (HCT116 cells [3]) was “quickly induced acetylation”.
In the case of `O=C(CCCCCCC(=O)Nc1ccccc1)NO` [SAHA, vorinostat, reference compound], the “HDAC1 inhibition in vitro, potency” value (HDAC1) is reported as less than 10 µM.
With `CC(/C=C/C(=O)NO)=C\[C@@H](C)C(=O)c1ccc(N(C)C)cc1` [TSA, Trichostatin A, reference compound] the α-tubulin acetylation (HCT116 and A549 cells) was “dramatically increased α-tubulin acetylation” and the “Accumulation of acetylated histones” value (HCT116 cells [2]) was “strongly induced acetylation at some sites but weakly at other sites”.
In the case of `CCCCNNC(=O)c1ccc(Br)cc1` [UF010, 4-bromo-N′-butylbenzohydrazide], the “Cell migration to the denuded areas” value (MDA-MB-231 cells [5]) is reported as “markedly slowed migration”, the “Accumulation of acetylated p53” value (HCT116 and A549 cells; 2 μM, after exposure to etoposide 10 μM) is reported as “induced accumulation of acetylated p53” and the p53 stabilization (HCT116 and A549 cells; 2 μM, with or without etoposide treatment) is reported as “notably stabilized p53”. The α-tubulin acetylation (HCT116 and A549 cells) was “little to no effect”, the “Inhibition of proliferation, NCI-60 panel” value [6] was “inhibited proliferation of all tested cell lines” and the “Potency relative to entinostat in cell-based assays” value [7] was “about 5 fold”. The “HDAC1 inhibition in vitro, potency” value (HDAC1) was less than 10 µM, the “Inhibition of cellular HDACs (H4K5ac, H3K18ac)” value (HCT116 cells [2]) was “consistently displayed potent inhibition of cellular HDACs” and the “Accumulation of acetylated histones” value (HCT116 cells [2]) was “consistently induced the accumulation of acetylated histones at all sites examined”. For the same compound, the “Mode of HDAC inhibition (on/off)” value (HCT116 cells [3]) was “fast-on but slow-off inhibitor”, the “Persistence” value (HCT116 cells [3]) was “up to 96 h” and the “Time to induction” value (HCT116 cells [3]) was no more than 6 h. For the same compound, the Cell cycle effect (MDA-MB-231 cells [8]) was “mainly blocked G1/S transition”, the “CDKN1A (p21) expression by qPCR” value (MDA-MB-231 cells [9]) was “activation of CDKNA encoding p21 was also confirmed” and the “Predicated activation state, Biological Functions: Cell cycle, Cell cycle progression” value (MDA-MB-231 cells [10]) was “Suppressed”. For the same compound, the “Predicated activation state, Biological Functions: Cell death and survival, Apoptosis” value (MDA-MB-231 cells [10]) was “Activated”, the “Predicated activation state, Biological Functions: Cell death and survival, Cell survival” value (MDA-MB-231 cells [10]) was “Suppressed” and the “Predicated activation state, Biological Functions: Cell death and survival, Necrosis” value (MDA-MB-231 cells [10]) was “Activated”. For the same compound, the “Predicated activation state, Biological Functions: Cell growth and proliferation, Proliferation of cells” value (MDA-MB-231 cells [10]) was “Suppressed”, the “Predicated activation state, Biological Functions: DNA replication, recombination and repair, Repair of DNA” value (MDA-MB-231 cells [10]) was “Suppressed” and the “Predicated activation state, Biological Functions: Gene expression, Transcription of RNA” value (MDA-MB-231 cells [10]) was “Suppressed”. The “Predicated activation state, Upstream Regulators: Butyric acid” value (MDA-MB-231 cells [10]) was “Activated”, the “Predicated activation state, Upstream Regulators: Cisplatin” value (MDA-MB-231 cells [10]) was “Activated” and the “Predicated activation state, Upstream Regulators: ERK1/2” value (MDA-MB-231 cells [10]) was “Activated”. The “Predicated activation state, Upstream Regulators: HDAC1” value (MDA-MB-231 cells [10]) was “Suppressed”, the “Predicated activation state, Upstream Regulators: HDAC2” value (MDA-MB-231 cells [10]) was “Suppressed” and the “Predicated activation state, Upstream Regulators: KRAS” value (MDA-MB-231 cells [10]) was “Suppressed”. For the same compound, the “Predicated activation state, Upstream Regulators: MYCN” value (MDA-MB-231 cells [10]) was “Suppressed”, the “Predicated activation state, Upstream Regulators: Myc” value (MDA-MB-231 cells [10]) was “Suppressed” and the “Predicated activation state, Upstream Regulators: Rb1” value (MDA-MB-231 cells [10]) was “Activated”. The “Predicated activation state, Upstream Regulators: Romidepsin” value (MDA-MB-231 cells [10]) was “Activated”, the “Predicated activation state, Upstream Regulators: TP53” value (MDA-MB-231 cells [10]) was “Activated” and the “Predicated activation state, Upstream Regulators: Tributyrin (butyrate)” value (MDA-MB-231 cells [10]) was “Activated”. For the same compound, the “Predicated activation state, Upstream Regulators: Trichostatin A” value (MDA-MB-231 cells [10]) was “Activated” and the “Predicated activation state, Upstream Regulators: fulvestrant” value (MDA-MB-231 cells [10]) was “Activated”.
